Each block holds one compound with its values, some of them ahead of it.
Assays:
[1] = Chemical stability of foam formulations by HPLC (assay % LC, total impurities); format: physicochemical; settings: for chemical stability, in words: to 3 months, 25° C./60% RH and 40° C./75% RH
Description: The protocol used for determining the purity was a liquid chromatography (LC) method. The LC method is provided below.
This method is for the determination of Ruxolitinib Phosphate in foam formulations that contain Ruxolitinib Phosphate as active pharmaceutical ingredient (API). The method is suitable for the determination of active content in stability screening samples. The method can also be used to estimate the level of major degradants of Ruxolitinib Phosphate.
Foam formulations contain about 0.5% Ruxolitinib base (API added as Ruxolitinib Phosphate)
Weigh accurately about 500 mg of sample into a tared 25 mL volumetric flask.
Equilibrate the chromatographic system with starting mobile phase composition until a stable baseline is obtained. The following gradient (Table 12) at a flow rate of 1.0-1.5 mL/min is used: […]
Using the instrument conditions, equilibrate the chromatographic system with mobile phase. Record the chromatograms of Ruxolitinib Phosphate peak for the standard and sample solutions. The retention time of principal peak in the HPLC chromatogram of the sample should correspond with the retention time of the principal peak produced by Ruxolitinib Phosphate Standard Solution. The retention time difference between sample and standard should not be more than 5%.

[2] = Minipig plasma concentrations / toxicokinetic evaluation after topical foam; settings: topical application of foam formulations
[3] = Solubility of ruxolitinib phosphate in organic media; format: physicochemical; settings: for Reported Solubility % w/w, ruxolitinib phosphate: ambient temperature
Procedure: Under pre-formulation studies, the solubility of ruxolitinib phosphate was evaluated in organic media over the course of three days at ambient temperature.

[4] = Solubility of ruxolitinib phosphate in ethanol-water solutions and hydroethanolic foamable carrier components; format: physicochemical
Procedure: Based on the good solubility of ruxolitinib phosphate in hydroethanolic mixtures, the solubility of ruxolitinib phosphate in a hydroethanolic base formulation was studied. Utilizing Method A (Materials and Methods), the formulations in Table 23 were prepared. […] PG was added as a penetration enhancer to facilitate better skin permeation of the API from application of the foam.

alopecia = settings: 8 mg and 12 mg BID orally; cited from earlier work
[5] = Microscopic examination of the foam samples (drug recrystallisation); format: physicochemical
[6] = 1,3-Dimethyl-2-Imadolidinone (DMI) (neat)
[7] = Isopropyl Myristate (IPM) (neat)

- chemical stability, in words [1]: chemically stable
SMILES: N#CC[C@H](C1CCCC1)n1cc(-c2ncnc3[nH]ccc23)cn1 [Ruxolitinib]
- systemic exposure (plasma concentrations) [2]: did not indicate therapeutic relevant concentrations

- Calculated Solubility, % w/w in base form [3, 6]: 0.168 % w/w
- Reported Solubility % w/w, ruxolitinib phosphate [3, 6]: 0.22 % w/w
- Calculated Solubility, % w/w in base form ([3]; Castor Oil (neat)): 0.028 % w/w
- Reported Solubility % w/w, ruxolitinib phosphate ([3]; Castor Oil (neat)): 0.037 % w/w
- Calculated Solubility, % w/w in base form ([3]; DIPA (neat)): <0.01 % w/w
- Reported Solubility % w/w, ruxolitinib phosphate ([3]; DIPA (neat)): <0.01 % w/w
- Calculated Solubility, % w/w in base form ([3]; Ethyl Oleate (neat)): <0.01 % w/w
- Reported Solubility % w/w, ruxolitinib phosphate ([3]; Ethyl Oleate (neat)): <0.01 % w/w
- Calculated Solubility, % w/w in base form ([3]; Etocas 35 (neat)): 0.729 % w/w
- Reported Solubility % w/w, ruxolitinib phosphate ([3]; Etocas 35 (neat)): 0.962 % w/w
- Calculated Solubility, % w/w in base form ([3]; GTCC (neat)): 0.015 % w/w
- Reported Solubility % w/w, ruxolitinib phosphate ([3]; GTCC (neat)): 0.02 % w/w
- Calculated Solubility, % w/w in base form [3, 7]: <0.01 % w/w
- Reported Solubility % w/w, ruxolitinib phosphate [3, 7]: <0.01 % w/w
- Calculated Solubility, % w/w in base form ([3]; Light Mineral Oil (LMO) (neat)): <0.01 % w/w
- Reported Solubility % w/w, ruxolitinib phosphate ([3]; Light Mineral Oil (LMO) (neat)): <0.01 % w/w
- Calculated Solubility, % w/w in base form ([3]; Octadodecabol (ODD) (neat)): 0.022 % w/w
- Reported Solubility % w/w, ruxolitinib phosphate ([3]; Octadodecabol (ODD) (neat)): 0.029 % w/w
- Calculated Solubility, % w/w in base form ([3]; Oleth-3 (neat)): 0.513 % w/w
- Reported Solubility % w/w, ruxolitinib phosphate ([3]; Oleth-3 (neat)): 0.677 % w/w
- Calculated Solubility, % w/w in base form ([3]; Oleyl alcohol (neat)): 0.052 % w/w
- Reported Solubility % w/w, ruxolitinib phosphate ([3]; Oleyl alcohol (neat), no propellant): 0.068 % w/w
- Calculated Solubility, % w/w in base form ([3]; PEG 300 (neat)): 1.169 % w/w
- Reported Solubility % w/w, ruxolitinib phosphate ([3]; PEG 300 (neat)): 1.543 % w/w
- Calculated Solubility, % w/w in base form ([3]; PEG400 (neat)): 0.846 % w/w
- Reported Solubility % w/w, ruxolitinib phosphate ([3]; PEG400 (neat)): 1.117 % w/w
- Calculated Solubility, % w/w in base form ([3]; Polysorabte 80 (neat)): 0.920 % w/w
- Reported Solubility % w/w, ruxolitinib phosphate ([3]; Polysorabte 80 (neat)): 1.214 % w/w
- Calculated Solubility, % w/w in base form ([3]; Polysorbate 20 (neat)): 0.957 % w/w
- Reported Solubility % w/w, ruxolitinib phosphate ([3]; Polysorbate 20 (neat)): 1.263 % w/w
- Calculated Solubility, % w/w in base form ([3]; Propylene Glycol (PG) (neat)): 1.651 % w/w
- Reported Solubility % w/w, ruxolitinib phosphate ([3]; Propylene Glycol (PG) (neat)): 2.179 % w/w
- Calculated Solubility, % w/w in base form ([3]; Span 20 (neat)): 0.877 % w/w
- Reported Solubility % w/w, ruxolitinib phosphate ([3]; Span 20 (neat)): 1.157 % w/w
- Calculated Solubility, % w/w in base form ([3]; Transcutol-P (neat)): 0.927 % w/w
- Reported Solubility % w/w, ruxolitinib phosphate ([3]; Transcutol-P (neat)): 1.223 % w/w
- solubility (loading level) in ethanol:water ([4]; mixtures of 60:40 or 40:60 ethanol:water): ~4 % on a free base basis (w/w)
SMILES: N#CC[C@H](C1CCCC1)n1cc(-c2ncnc3[nH]ccc23)cn1 [Ruxolitinib phosphate]
- amount dissolved in hydroethanolic base ([4]; base having 60% ethanol with and without additional propylene glycol): approximately 3 % (w/w) on a free base basis

- impurities ([1]; 3-months, 25° C. and 40° C., method detection limit): < 0.05 % area
- chemical stability, in words [1]: chemically stable
- drug recrystallisation / solubility in the foam [5]: remained soluble in the foam formulation
SMILES: [2H]C1([2H])C([C@@H](CC#N)n2cc(-c3ncnc4[nH]ccc34)cn2)C([2H])([2H])C([2H])([2H])C1([2H])[2H] [Deuruxolitinib, (3R)-3-(2,2,3,3,4,4,5,5-D8) cyclopentyl-3-[4-(7H-pyrrolo[2,3-d]pyrimidin-4-yl)-1H-pyrazol-1-yl]propanenitrile]
- clinical endpoint (alopecia): met the clinical endpoint
- systemic exposure (plasma concentrations) [2]: did not indicate therapeutic relevant concentrations

— patent publication US20250205157A1, “TOPICAL RUXOLITINIB FOAM” (Incyte Corporation, priority 2023, published 2025)
